In US20080199517A1, “Composition and a process thereof” (priority 2007, published 2008):

Test system: castrated male adolescent rats
Assay: Anabolic activity in castrated rats: organ weight
Format: in vivo, rats of Swiss Wistar strain
Conditions: castrated animals, result in words
Protocol: Male Adolescent rats of Swiss Wistar strain of body weight 55 gms are chosen for this experiment and are castrated. The castrated groups are divided into 2 groups. • 1. Control group castrated animals n=6 • 2. Drug treated castrated animals treated with test compound at 25 mg/kg n=6
Both the groups are fed ad libitum food and water and observed for 28 days. Their serum at the beginning of the experiment and at the end of the experiment are drawn and checked for Total testosterone, and free testosterone. The animals are sacrificed at the end of the experiment and seminal vesicle; ventral Prostate and Levator Ani are removed and weighed. These organ weights are compound with the control animals.

Structure (SMILES): CC(COC1OC(CO)C(O)C(O)C1O)C(C)CC1(O)CC2CC3C4CC=C5CC(OC6OC(CO)C(O)C(O)C6OC6OC(C)C(O)C(O)C6O)CCC5(C)C4CCC3(C)C2C1C (stereo not shown) [saponin of structural formula I]
- anabolic activity: does not showed any activity
